# Literature values in US20020045179A1, “Toxicity typing using mesenchymal stem cells” (priority 2000, published 2002).
# Where two headings read alike, the source gives them in different places.
# What was measured:
# [1] = for liver toxicity (in words): predetermined toxicity stated in text of Example 2
# [2] = in vivo
# [3] = in vivo; remark: listed apart in the source
# [4] = in vivo; remark: listed apart in the source
# [5] = Table 1, predetermined toxicity by tissue/organ
smiles,measurement,setting,value
CC(=O)Nc1ccc(O)cc1 [acetominophen],TOXICITIES LIVER,[1]; in vivo,+
c1ccc2c(c1)cc1ccc3cccc4ccc2c1c34 [benzo(a)pyrene],TOXICITIES CV,[2],+
N.N.O=C([O-])C1(C(=O)[O-])CCC1.[Pt+2] [carboplatin],TOXICITIES GI,[3],+
CCOC(=O)C(C)(C)Oc1ccc(Cl)cc1 [clofibrate],TOXICITIES LIVER,[1]; [5],ntc
N=C(N)NCCCCCCC(=O)NC(O)C(=O)NCCCCNCCCN (stereo not drawn) [deoxyspergualin],TOXICITIES CV,[2],+
CCC(=O)O[C@H]1[C@H](O[C@@H]2[C@@H](C)[C@H](O[C@H]3C[C@@](C)(OC)[C@@H](O)[C@H](C)O3)[C@@H](C)C(=O)O[C@H](CC)[C@@](C)(O)[C@H](O)[C@@H](C)C(=O)[C@H](C)C[C@@]2(C)O)O[C@H](C)C[C@@H]1N(C)C [erythromycin estolate],liver toxicity (in words),[1],known liver toxicity
COc1nc(C(Cl)(Cl)Cl)c(Cl)c(OC)c1Cl [penclomedine],TOXICITIES CNS,[4],+
CN(CCOc1ccc(CC2SC(=O)NC2=O)cc1)c1ccccn1 (stereo not drawn) [rosiglitazone],TOXICITIES LIVER,[1]; [5],ntc
Cc1c(C)c2c(c(C)c1O)CCC(C)(COc1ccc(CC3SC(=O)NC3=O)cc1)O2 (stereo not drawn) [troglitazone],liver toxicity (in words),[1],rare but severe liver toxicity
